Experimental data taken from ChEMBL document CHEMBL3351760, “Homology modeling and explicit membrane molecular dynamics simulation to delineate the mode of binding of thiazolidinediones into FFAR1 and the mechanism of receptor activation” (Bioorg Med Chem Lett, 2014).

Target: Free fatty acid receptor 1 (Homo sapiens, UniProt O14842)
Assay: Agonist activity at FFAR1 (unknown origin) assessed as increase in ERK1/2 MAP kinase phosphorylation

Free fatty acid receptor 1, sequence (O14842 whole entry): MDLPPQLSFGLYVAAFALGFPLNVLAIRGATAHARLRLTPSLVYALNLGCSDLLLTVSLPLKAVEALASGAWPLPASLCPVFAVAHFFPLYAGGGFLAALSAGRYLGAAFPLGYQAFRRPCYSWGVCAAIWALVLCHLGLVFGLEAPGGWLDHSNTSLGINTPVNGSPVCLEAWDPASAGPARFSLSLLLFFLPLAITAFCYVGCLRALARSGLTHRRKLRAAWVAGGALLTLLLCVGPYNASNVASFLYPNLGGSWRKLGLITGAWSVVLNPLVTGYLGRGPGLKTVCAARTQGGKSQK

| EC50 | SMILES |
| --- | --- |
| 0.316 µM | O=C(O)CCc1ccc(NCc2cccc(Oc3ccccc3)c2)cc1 [GW9508] |
| 11.5 µM | CN(CCOc1ccc(CC2SC(=O)NC2=O)cc1)c1ccccn1 (stereo not drawn) [ROSIGLITAZONE] |
| 813 µM | CCc1ccc(CCOc2ccc(CC3SC(=O)NC3=O)cc2)nc1 (stereo not drawn) [PIOGLITAZONE] |
